Test results from PubChem BioAssay (NCI).
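Test compounds were applied to cells in 96-well plates for 48 hours at 5 doses. Abbreviation: GI50, concentration required for 50% inhibition of growth. TGI: total growth inhibition.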

Experiments:
Assay in all cases: inhibition of tumour cell growth, NCI panel, 48 h
NCI-H522 lung = system: NCI-H522 lung
SR leukemia = system: SR leukemia
MALME-3M melanoma = system: MALME-3M melanoma
NCI-H460 lung = system: NCI-H460 lung
SK-MEL-28 melanoma = system: SK-MEL-28 melanoma
UO-31 renal = system: UO-31 renal
HCC-2998 colon = system: HCC-2998 colon
CCRF-CEM leukemia = system: CCRF-CEM leukemia
MCF7 breast = system: MCF7 breast
SN12C renal = system: SN12C renal
HT29 colon = system: HT29 colon
NCI-H23 lung = system: NCI-H23 lung
RPMI-8226 leukemia = system: RPMI-8226 leukemia
OVCAR-5 ovarian = system: OVCAR-5 ovarian
U251 CNS = system: U251 CNS
HCT-15 colon = system: HCT-15 colon
LOX IMVI melanoma = system: LOX IMVI melanoma
SNB-19 CNS = system: SNB-19 CNS
A549 NSCLC = system: A549 NSCLC
SF-539 CNS = system: SF-539 CNS
TK-10 renal = system: TK-10 renal
SK-MEL-2 melanoma = system: SK-MEL-2 melanoma
KM12 colon = system: KM12 colon
NCI-H226 lung = system: NCI-H226 lung
SF-295 CNS = system: SF-295 CNS
A498 renal = system: A498 renal
UACC-62 melanoma = system: UACC-62 melanoma
HOP-62 NSCLC = system: HOP-62 NSCLC
HOP-92 NSCLC = system: HOP-92 NSCLC
HCT-116 colon = system: HCT-116 colon
HL-60(TB) leukemia = system: HL-60(TB) leukemia
SF-268 CNS = system: SF-268 CNS
HS 578T breast = system: HS 578T breast
IGROV1 ovarian = system: IGROV1 ovarian
ACHN renal = system: ACHN renal
EKVX NSCLC = system: EKVX NSCLC
MOLT-4 leukemia = system: MOLT-4 leukemia
PC-3 prostate = system: PC-3 prostate
SK-MEL-5 melanoma = system: SK-MEL-5 melanoma
T-47D breast = system: T-47D breast
BT-549 breast = system: BT-549 breast
M14 melanoma = system: M14 melanoma
OVCAR-3 ovarian = system: OVCAR-3 ovarian
CAKI-1 renal = system: CAKI-1 renal
DU-145 prostate = system: DU-145 prostate
UACC-257 melanoma = system: UACC-257 melanoma
OVCAR-8 ovarian = system: OVCAR-8 ovarian
SK-OV-3 ovarian = system: SK-OV-3 ovarian
SNB-75 CNS = system: SNB-75 CNS
NCI/ADR-RES ovarian = system: NCI/ADR-RES ovarian
MDA-MB-231 breast = system: MDA-MB-231 breast
COLO 205 colon = system: COLO 205 colon
OVCAR-4 ovarian = system: OVCAR-4 ovarian
SW-620 colon = system: SW-620 colon
MDA-MB-435 = system: MDA-MB-435
786-0 renal = system: 786-0 renal
K-562 leukemia = system: K-562 leukemia

In the case of `CCN1C(=O)N(CC)C2SC(N/N=C/c3cccs3)=NC21` (stereo not drawn), the GI50 (NCI-H522 lung) is reported as 81.1 nM, the TGI (NCI-H522 lung) is reported as 386 nM and the GI50 (SR leukemia) is reported as 54.6 nM. It also gave a TGI (SR leukemia) greater than 26800 nM, a TGI (MALME-3M melanoma) greater than 100000 nM and a GI50 (NCI-H460 lung) of 333 nM. For the same molecule, the GI50 (SK-MEL-28 melanoma) was greater than 19700 nM, the TGI (SK-MEL-28 melanoma) was greater than 100000 nM and the GI50 (UO-31 renal) was 595 nM. For the same molecule, the TGI (UO-31 renal) was greater than 100000 nM, the GI50 (HCC-2998 colon) was 313 nM and the TGI (HCC-2998 colon) was greater than 93800 nM. For the same molecule, the GI50 (CCRF-CEM leukemia) was 360 nM, the TGI (CCRF-CEM leukemia) was greater than 100000 nM and the GI50 (MCF7 breast) was 119 nM. It also gave a TGI (MCF7 breast) greater than 100000 nM, a GI50 (SN12C renal) of 653 nM and a TGI (SN12C renal) greater than 100000 nM. For the same molecule, the GI50 (HT29 colon) was 260 nM, the TGI (HT29 colon) was 3200 nM and the GI50 (NCI-H23 lung) was 418 nM. It also gave a TGI (NCI-H23 lung) greater than 100000 nM, a GI50 (RPMI-8226 leukemia) of 348 nM and a TGI (RPMI-8226 leukemia) greater than 100000 nM. It also gave a GI50 (OVCAR-5 ovarian) of 527 nM, a TGI (OVCAR-5 ovarian) greater than 100000 nM and a GI50 (U251 CNS) of 318 nM. The TGI (U251 CNS) was greater than 32600 nM, the GI50 (HCT-15 colon) was 202 nM and the TGI (HCT-15 colon) was greater than 100000 nM. It also gave a GI50 (LOX IMVI melanoma) of 446 nM, a TGI (LOX IMVI melanoma) greater than 100000 nM and a GI50 (SNB-19 CNS) of 428 nM. It also gave a TGI (SNB-19 CNS) greater than 100000 nM, a GI50 (A549 NSCLC) of 431 nM and a TGI (A549 NSCLC) greater than 100000 nM. For the same molecule, the GI50 (SF-539 CNS) was 198 nM, the TGI (SF-539 CNS) was 823 nM and the TGI (TK-10 renal) was greater than 100000 nM. The GI50 (SK-MEL-2 melanoma) was 360 nM, the TGI (SK-MEL-2 melanoma) was greater than 100000 nM and the GI50 (KM12 colon) was 232 nM. It also gave a TGI (KM12 colon) greater than 100000 nM, a GI50 (NCI-H226 lung) of 1430 nM and a TGI (NCI-H226 lung) greater than 100000 nM. For the same molecule, the GI50 (SF-295 CNS) was 262 nM, the TGI (SF-295 CNS) was greater than 100000 nM and the GI50 (A498 renal) was 131 nM. The TGI (A498 renal) was 705 nM, the GI50 (UACC-62 melanoma) was 141 nM and the TGI (UACC-62 melanoma) was greater than 100000 nM. For the same molecule, the GI50 (HOP-62 NSCLC) was 470 nM, the TGI (HOP-62 NSCLC) was greater than 100000 nM and the GI50 (HOP-92 NSCLC) was 922 nM. It also gave a TGI (HOP-92 NSCLC) greater than 23300 nM, a GI50 (HCT-116 colon) of 281 nM and a TGI (HCT-116 colon) of 5430 nM. It also gave a GI50 (HL-60(TB) leukemia) of 186 nM, a TGI (HL-60(TB) leukemia) of 658 nM and a GI50 (SF-268 CNS) of 1710 nM. It also gave a TGI (SF-268 CNS) greater than 100000 nM, a GI50 (HS 578T breast) of 286 nM and a TGI (HS 578T breast) greater than 100000 nM. For the same molecule, the GI50 (IGROV1 ovarian) was 579 nM, the TGI (IGROV1 ovarian) was greater than 100000 nM and the GI50 (ACHN renal) was 581 nM. For the same molecule, the TGI (ACHN renal) was greater than 100000 nM, the GI50 (EKVX NSCLC) was 655 nM and the TGI (EKVX NSCLC) was greater than 100000 nM. It also gave a GI50 (MOLT-4 leukemia) of 465 nM, a TGI (MOLT-4 leukemia) greater than 100000 nM and a GI50 (PC-3 prostate) of 345 nM. For the same molecule, the TGI (PC-3 prostate) was greater than 100000 nM, the GI50 (SK-MEL-5 melanoma) was 523 nM and the TGI (SK-MEL-5 melanoma) was 3360 nM. It also gave a GI50 (T-47D breast) greater than 45100 nM, a TGI (T-47D breast) greater than 100000 nM and a GI50 (BT-549 breast) of 211 nM. For the same molecule, the TGI (BT-549 breast) was 1270 nM, the GI50 (M14 melanoma) was 192 nM and the TGI (M14 melanoma) was greater than 100000 nM. The GI50 (OVCAR-3 ovarian) was 333 nM, the TGI (OVCAR-3 ovarian) was 2070 nM and the GI50 (CAKI-1 renal) was 191 nM. For the same molecule, the TGI (CAKI-1 renal) was greater than 100000 nM, the GI50 (DU-145 prostate) was 483 nM and the TGI (DU-145 prostate) was greater than 100000 nM. For the same molecule, the GI50 (UACC-257 melanoma) was 1050 nM, the TGI (UACC-257 melanoma) was greater than 100000 nM and the GI50 (OVCAR-8 ovarian) was 398 nM. For the same molecule, the GI50 (SK-OV-3 ovarian) was 532 nM, the TGI (SK-OV-3 ovarian) was greater than 100000 nM and the GI50 (SNB-75 CNS) was 122 nM. The GI50 (NCI/ADR-RES ovarian) was 356 nM, the TGI (NCI/ADR-RES ovarian) was greater than 100000 nM and the GI50 (MDA-MB-231 breast) was 540 nM. The TGI (MDA-MB-231 breast) was greater than 100000 nM, the GI50 (COLO 205 colon) was 248 nM and the TGI (COLO 205 colon) was 723 nM. The TGI (OVCAR-4 ovarian) was greater than 100000 nM, the GI50 (SW-620 colon) was 249 nM and the TGI (SW-620 colon) was greater than 100000 nM. The GI50 (MDA-MB-435) was 33.8 nM, the TGI (MDA-MB-435) was 205 nM and the GI50 (786-0 renal) was 643 nM. It also gave a TGI (786-0 renal) greater than 100000 nM, a GI50 (K-562 leukemia) of 91.2 nM and a TGI (K-562 leukemia) greater than 100000 nM.
